For data set [1], the system named is S. aureus ATCC 25923. Put plainly: microbe, parasite or virus in culture. The following applies: ATCC 25923, 18 h. How it is done: (§1) All compounds synthesised in this study were assessed for their minimum inhibitory concentrations (MIC, mg/L) by broth microdilution assay against five antibiotic-sensitive and resistant ATCC reference strains covering the Gram-negative ESKAPE pathogens (Escherichia coli, Klebsiella pneumoniae, A. baumannii, and P. aeruginosa) (Table 1, Table 2 and Table 3). Staphylococcus aureus was also included as a representative Gram-positive bacterial strain. […] Polymyxin B 1, colistin 2, vancomycin and gentamicin were used as positive inhibitor comparator compounds. Compounds were counter-screened against human proximal tubular epithelial cells (HK-2), using LDH release as a general indicator of cellular toxicity.

For data set [2], the system named is K. pneumoniae BAA 2146. Put plainly: microbe, parasite or virus in culture. As to conditions: BAA 2146, 18 h. How it is done:
as §1

For data set [3], the system named is P. aeruginosa ATTC 27853. As to the kind of experiment: microbe, parasite or virus in culture. The following applies: ATTC 27853, 18 h. How it is done:
as §1

Data set [4] concerns E. coli ATCC 25922. Put plainly: microbe, parasite or virus in culture. The following applies: ATCC 25922, 18 h. How it is done:
as §1

The subject of data set [5] is K. pneumoniae ATCC 13833. As to the kind of experiment: microbe, parasite or virus in culture. As to conditions: ATCC 13833, 18 h. How it is done:
as §1

For data set [6], the system named is K. pneumoniae ATCC 700603. Put plainly: microbe, parasite or virus in culture. As to conditions: ATCC 700603, 18 h. As for the experimental part:
as §1

The test system of data set [7] is A. baumannii ATCC 19606. Put plainly: microbe, parasite or virus in culture. As to conditions: ATCC 19606, 18 h. How it is done: as §1
The nature of data set [8]: in vitro. The following applies: human. How it is done: as §1
Cytotoxicity to human kidney proximal tubular epithelial cell line, HK-2 (ATCC CRL-2190, sourced from ATCC; Manassas, VA, USA) was determined using the LDH assay as previously described. In brief, HK-2 cells were seeded as 2000 cells/well in black-walled clear bottom 384-well tissue culture treated plates (Corning, catalogue No. 3712) in DMEM/F12 medium (Gibco® 10565-042) containing 10% of Fetal Bovine Serum (FBS, Gibco® 10099-141) and incubated for 24 h at 37 °C, 5% CO2. Compounds were then added into each well with a concentration series from 300 µM to 2.3 µM in 2-fold dilutions. Colistin and polymyxin B were used as controls and tested at a final concentration range of 1 mM to 7.8 µM. The cells were incubated with the compounds for 24 h at 37 °C, 5% CO2. After the incubation, 5 µL of culture medium was added to 45 µL of LDH assay buffer (Biovision, K313-500) and incubated for 30 min at room temperature. The absorbance (ABS) was then read at 450 nm using a Polar Star Omega plate reader. The data was analysed by Prism 6 software (GraphPad Software, La Jolla, CA, USA). Results were calculated using the following equation: cytotoxicity %= (ABSsamples − ABSuntreated/ABS1%Triton X-100 − ABSuntreated) × 100.

Values after ≈ are worked out from the molar mass of the structure shown. Where a SMILES comes first, the peptide text is derived from it. Bridges are numbered along the chain shown (N, C = ends). [ ]: non-standard residue; d: D form. The star is where a group is joined. Isonicotinoyl(2-Ph) = O=C(c1ccnc(-c2ccccc2)c1)*; Benzoyl(3-Ph) = O=C(c1cccc(-c2ccccc2)c1)*; Benzoyl(4-hexyl) = CCCCCCc1ccc(C(=O)*)cc1; Hexanoyl(6-Ph) = O=C(CCCCCc1ccccc1)*; X2 = CCCCCOc1cccc(C(=O)*)c1; Dab = NCC[C@H](N)C(=O)O

Data on five compounds can be found in PMC6384738, “Structure-Function Studies of Polymyxin B Lipononapeptides” (Molecules, 2019).

Regarding `CC(C)C[C@@H]1NC(=O)[C@@H](Cc2ccccc2)NC(=O)[C@H](CCN)NC(=O)[C@@H](NC(=O)[C@H](CCN)NC(=O)[C@@H](NC(=O)c2ccnc(-c3ccccc3)c2)[C@@H](C)O)CCNC(=O)[C@H]([C@@H](C)O)NC(=O)[C@H](CCN)NC(=O)[C@H](CCN)NC1=O` [Compound 10] ({Isonicotinoyl(2-Ph)}-T[Dab][Dab][Dab][dF]L[Dab][Dab]T; lactam 3-C), in data set [1], the “MIC S. aureus ATCC 25923” value was greater than 32 µg/mL. Moreover, the “MIC K. pneumoniae BAA 2146” value in data set [2] came out at 16 µg/mL (≈ 14 µM). Besides, the “MIC P. aeruginosa ATTC 27853” value in data set [3] came to 1 µg/mL (≈ 0.874 µM). Moreover, in data set [4], the “MIC E. coli ATCC 25922” value amounted to 4 µg/mL (≈ 3.5 µM). Also, in data set [5], the “MIC K. pneumoniae ATCC 13833” value is greater than 32 µg/mL. Besides, the “MIC K. pneumoniae ATCC 700603” value in data set [6] was 16 µg/mL (≈ 14 µM). In addition, the “MIC A. baumannii ATCC 19606” value in data set [7] is greater than 32 µg/mL. The same compound displayed a CC50 at 24 h in data set [8] greater than 300 µM.

Regarding `CCCCCOc1cccc(C(=O)N[C@H](C(=O)N[C@@H](CCN)C(=O)N[C@H]2CCNC(=O)[C@H]([C@@H](C)O)NC(=O)[C@H](CCN)NC(=O)[C@H](CCN)NC(=O)[C@H](CC(C)C)NC(=O)[C@@H](Cc3ccccc3)NC(=O)[C@H](CCN)NC2=O)[C@@H](C)O)c1` [Compound 11] (X2-T[Dab][Dab][Dab][dF]L[Dab][Dab]T; lactam 3-C), the “MIC S. aureus ATCC 25923” value in data set [1] was greater than 32 µg/mL. Moreover, the “MIC K. pneumoniae BAA 2146” value in data set [2] came to 8 µg/mL (≈ 6.94 µM). For the same compound, the “MIC P. aeruginosa ATTC 27853” value in data set [3] turned out to be 2 µg/mL (≈ 1.73 µM). In addition, in data set [4], the “MIC E. coli ATCC 25922” value is 8 µg/mL (≈ 6.94 µM). The “MIC K. pneumoniae ATCC 13833” value in data set [5] was greater than 32 µg/mL. In data set [6], the “MIC K. pneumoniae ATCC 700603” value came to 32 µg/mL (≈ 27.7 µM). In addition, the “MIC A. baumannii ATCC 19606” value in data set [7] was greater than 32 µg/mL. In addition, the CC50 at 24 h in data set [8] was found to be 93 µM.

For `CCCCCCc1ccc(C(=O)N[C@H](C(=O)N[C@@H](CCN)C(=O)N[C@H]2CCNC(=O)[C@H]([C@@H](C)O)NC(=O)[C@H](CCN)NC(=O)[C@H](CCN)NC(=O)[C@H](CC(C)C)NC(=O)[C@@H](Cc3ccccc3)NC(=O)[C@H](CCN)NC2=O)[C@@H](C)O)cc1` [Compound 12] ({Benzoyl(4-hexyl)}-T[Dab][Dab][Dab][dF]L[Dab][Dab]T; lactam 3-C), the “MIC S. aureus ATCC 25923” value in data set [1] was found to be 8 µg/mL (≈ 6.95 µM). The “MIC K. pneumoniae BAA 2146” value in data set [2] came out at 2 µg/mL (≈ 1.74 µM). In addition, in data set [3], the “MIC P. aeruginosa ATTC 27853” value turned out to be 1 µg/mL (≈ 0.868 µM). In addition, in data set [4], the “MIC E. coli ATCC 25922” value came out at 2 µg/mL (≈ 1.74 µM). For the same compound, the “MIC K. pneumoniae ATCC 13833” value in data set [5] came to 16 µg/mL (≈ 13.9 µM). The “MIC K. pneumoniae ATCC 700603” value in data set [6] worked out at 4 µg/mL (≈ 3.47 µM). Besides, the “MIC A. baumannii ATCC 19606” value in data set [7] was 32 µg/mL (≈ 27.8 µM). The same compound came in with a CC50 at 24 h in data set [8] of 46 µM.

`CC(C)C[C@@H]1NC(=O)[C@@H](Cc2ccccc2)NC(=O)[C@H](CCN)NC(=O)[C@@H](NC(=O)[C@H](CCN)NC(=O)[C@@H](NC(=O)CCCCCc2ccccc2)[C@@H](C)O)CCNC(=O)[C@H]([C@@H](C)O)NC(=O)[C@H](CCN)NC(=O)[C@H](CCN)NC1=O` [Compound 13] ({Hexanoyl(6-Ph)}-T[Dab][Dab][Dab][dF]L[Dab][Dab]T; lactam 3-C): in data set [1], the “MIC S. aureus ATCC 25923” value is greater than 32 µg/mL. Moreover, in data set [2], the “MIC K. pneumoniae BAA 2146” value worked out at 1 µg/mL (≈ 0.879 µM). Also, the “MIC P. aeruginosa ATTC 27853” value in data set [3] is 1 µg/mL (≈ 0.879 µM). Besides, in data set [4], the “MIC E. coli ATCC 25922” value stood at 1 µg/mL (≈ 0.879 µM). Besides, the “MIC K. pneumoniae ATCC 13833” value in data set [5] was determined as 8 µg/mL (≈ 7.03 µM). Moreover, the “MIC K. pneumoniae ATCC 700603” value in data set [6] came out at 2 µg/mL (≈ 1.76 µM). The “MIC A. baumannii ATCC 19606” value in data set [7] was 8 µg/mL (≈ 7.03 µM). Besides, in data set [8], the CC50 at 24 h turned out to be 189 µM.

Take `CC(C)C[C@@H]1NC(=O)[C@@H](Cc2ccccc2)NC(=O)[C@H](CCN)NC(=O)[C@@H](NC(=O)[C@H](CCN)NC(=O)[C@@H](NC(=O)c2cccc(-c3ccccc3)c2)[C@@H](C)O)CCNC(=O)[C@H]([C@@H](C)O)NC(=O)[C@H](CCN)NC(=O)[C@H](CCN)NC1=O` [Compound 14] ({Benzoyl(3-Ph)}-T[Dab][Dab][Dab][dF]L[Dab][Dab]T; lactam 3-C): in data set [1], the “MIC S. aureus ATCC 25923” value was greater than 32 µg/mL. Besides, the “MIC K. pneumoniae BAA 2146” value in data set [2] was 16 µg/mL (≈ 14 µM). The “MIC P. aeruginosa ATTC 27853” value in data set [3] was determined as 2 µg/mL (≈ 1.75 µM). Also, the “MIC E. coli ATCC 25922” value in data set [4] is 8 µg/mL (≈ 7 µM). Moreover, the “MIC K. pneumoniae ATCC 13833” value in data set [5] was greater than 32 µg/mL. The “MIC K. pneumoniae ATCC 700603” value in data set [6] was determined as 32 µg/mL (≈ 28 µM). The “MIC A. baumannii ATCC 19606” value in data set [7] was greater than 32 µg/mL. The CC50 at 24 h in data set [8] amounted to 182 µM.
